From US11415579B2, “Assay for measuring a rate of reaction between a target and a ligand candidate” (Imperial College Innovations Ltd., priority 2016, dated 2022)

Experiments:
Cdk2(H71C) (C177A) = target: T1, Cdk2(H71C) (C177A) (Homo sapiens, UniProt P24941, C177A/H71C); experiment: Kinetic thiol consumption assay with Cdk2 mutant H71C; assay type: binding; parameters: key to Rate enhancement, Cdk2 H71C: rate constant with Cdk2 ÷ rate constant with model thiol (fold); details: additional mutation C177A; for Rate constant with Cdk2 H71C: Protein: Cdk2, cysteine position H71C, in h^-1
T1 construct: poly-histidine; made in house; host or cells: E. coli
How it was run: (§1)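 Read-out is fluorescence at 380/470 nm, taken after 1 h at room temperature and normalized to a DMSO/thiol-only control over time. Thiol (5 μM Cdk2 mutant or model thiol) was in degassed pH 8 phosphate buffer with 2% v/v TCEP beads. Acrylamide rate constants for Cdk2 were divided by those with model thiol.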

[1] = target: T2, human cyclin-dependent kinase 2 (Cdk2) (Homo sapiens, UniProt P24941); experiment: Kinetic thiol consumption assay with wild type Cdk2 (C177); assay type: binding; parameters: key to Rate enhancement, Cdk2 WT: k(Cdk2) divided by k(model thiol); Rate constant with Cdk2 (k(Cdk2)): unit not given here; details: for Rate constant with Cdk2 (k(Cdk2)): 500 μM ligand, 5 μM thiol, phosphate buffer pH 8; for Rate enhancement, Cdk2 WT: no additional mutations; for Rate constant with Cdk2 WT: Protein: Cdk2, cysteine position WT, in h^-1; for k(Cdk2)/k(Cdk2_mut) rate enhancement: model thiol Cdk2[C177A, F80C, K278C]; for k(Cdk2)/k(GSH) rate enhancement: model thiol glutathione
T2 construct: poly-histidine; made in house; host or cells: E. coli
How it was run: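 His-tagged human Cdk2 (single surface cysteine C177), expressed in E. coli, or a model thiol at 5 μM in degassed phosphate buffer pH 8 was pre-treated with immobilized TCEP beads (2% v/v) before acrylamide addition. Fluorescence (ex/em 380/470 nm) was read after 1 h at room temperature, normalized to DMSO/thiol-only control and plotted versus time.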

Cdk2(N272C) (C177A) = target: T3, Cdk2(N272C) (C177A) (Homo sapiens, UniProt P24941, C177A/N272C); experiment: Kinetic thiol consumption assay with Cdk2 mutant N272C; assay type: binding; parameters: key to Rate enhancement, Cdk2 N272: rate constant with Cdk2 ÷ rate constant with model thiol (fold); details: for Rate enhancement, Cdk2 N272: Cdk2 N272, additional mutation C177A; for Rate constant with Cdk2 N272C: Protein: Cdk2, cysteine position N272C, additional mutation C177A, in h^-1
T3 construct: poly-histidine; made in house; host or cells: E. coli
How it was run: as §1

Cdk2(T182C) (C177A) = target: T4, Cdk2(T182C) (C177A) (Homo sapiens, UniProt P24941, C177A/T182C); experiment: Kinetic thiol consumption assay with Cdk2 mutant T182C; assay type: binding; parameters: key to Rate enhancement, Cdk2 T182C: rate constant with Cdk2 ÷ rate constant with model thiol (fold); details: additional mutation C177A; for Rate constant with Cdk2 T182C: Protein: Cdk2, cysteine position T182C, in h^-1
T4 construct: poly-histidine; made in house; host or cells: E. coli
How it was run: as §1

Cdk2(C177A, F80C) = target: T5, Cdk2(C177A, F80C) (Homo sapiens, UniProt P24941, C177A/F80C); experiment: Kinetic thiol consumption assay with Cdk2 mutant F80C, incl. kobs versus concentration (Kd, k2); assay type: binding; parameters: key to Rate enhancement, Cdk2 F80C: Cdk2 rate constant divided by model-thiol rate constant; details: additional mutation C177A; for Rate constant with Cdk2 F80C: Protein: Cdk2, cysteine position F80C, in h^-1
T5 construct: poly-histidine; made in house; host or cells: E. coli
How it was run: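 His-tagged Cdk2(C177A/F80C) from E. coli or model thiol, 5 μM in degassed phosphate buffer pH 8 with TCEP beads, reacted with acrylamide ligands; fluorescence (ex/em 380/470 nm) normalized to DMSO control and fitted to first-order decay for kobs. Kd and k2 obtained from hyperbolic fit of kobs versus ligand concentration.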

Cdk2(S276C) (C177A) = target: T6, Cdk2(S276C) (C177A) (Homo sapiens, UniProt P24941, C177A/S276C); experiment: Kinetic thiol consumption assay with Cdk2 mutant S276C; assay type: binding; parameters: key to Rate enhancement, Cdk2 S276C: rate constant with Cdk2 ÷ rate constant with model thiol (fold); details: additional mutation C177A; for Rate constant with Cdk2 S276C: Protein: Cdk2, cysteine position S276C, in h^-1
T6 construct: poly-histidine; made in house; host or cells: E. coli
How it was run: as §1

Cdk2[C177A, F80C, K278C] = target: T7, Cdk2[C177A, F80C, K278C] (Homo sapiens, UniProt P24941, C177A/F80C/K278C); experiment: Kinetic thiol consumption assay with mutant Cdk2 as model thiol; assay type: binding; parameters: unit not given here; details: 500 μM ligand, 5 μM thiol, phosphate buffer pH 8
T7 construct: poly-histidine; made in house; host or cells: E. coli
How it was run: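 First-order rate constants were derived by exponential-decay fitting of DMSO/thiol-normalized fluorescence (380/470 nm) over time at room temperature. Thiol was 5 μM E. coli-expressed His-tagged Cdk2 mutant C177A/F80C/K278C in degassed pH 8 phosphate buffer containing 2% v/v TCEP beads.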

Cdk2(R122C) (C177A) = target: T8, Cdk2(R122C) (C177A) (Homo sapiens, UniProt P24941, C177A/R122C); experiment: Kinetic thiol consumption assay with Cdk2 mutant R122C; assay type: binding; parameters: key to Rate enhancement, Cdk2 R122C: rate constant with Cdk2 ÷ rate constant with model thiol (fold); details: additional mutation C177A; for Rate constant with Cdk2 R122C: Protein: Cdk2, cysteine position R122C, in h-1
T8 construct: poly-histidine; made in house; host or cells: E. coli
How it was run: as §1

[2] = Kinetic thiol consumption assay with model thiol glutathione; assay type: physicochemical; parameters: Rate constant with glutathione (k(GSH)): unit not given here; details: for Rate constant with glutathione (k(GSH)): 500 μM ligand, 5 μM thiol, phosphate buffer pH 8; for Rate constant with Glutathione: Protein: Glutathione, cysteine position NA, in h-1
How it was run: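 GSH 5 μM, degassed phosphate buffer pH 8, TCEP beads 2% v/v; acrylamide added; RT, 1 h; fluorescence ex/em 380/470 nm; normalized to DMSO/thiol control; k from first-order exponential decay fit.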

Cdk2(S181C) (C177A) = target: T9, Cdk2(S181C) (C177A) (Homo sapiens, UniProt P24941, C177A/S181C); experiment: Kinetic thiol consumption assay with Cdk2 mutant S181C; assay type: binding; parameters: key to Rate enhancement, Cdk2 S181C: rate constant with Cdk2 ÷ rate constant with model thiol (fold); details: additional mutation C177A; for Rate constant with Cdk2 S181C: Protein: Cdk2, cysteine position S181C, in h^-1
T9 construct: poly-histidine; made in house; host or cells: E. coli
How it was run: as §1

Rate enhancement, Cdk2 H71C (Cdk2(H71C) (C177A)) | Rate constant with Cdk2 (k(Cdk2)) [1] | Rate enhancement, Cdk2 WT [1] | Rate constant with Cdk2 WT [1] | k(Cdk2)/k(Cdk2_mut) rate enhancement [1] | k(Cdk2)/k(GSH) rate enhancement [1] | Rate enhancement, Cdk2 N272 (Cdk2(N272C) (C177A)) | Rate constant with Cdk2 N272C (Cdk2(N272C) (C177A)) | Rate enhancement, Cdk2 T182C (Cdk2(T182C) (C177A)) | Rate constant with Cdk2 T182C (Cdk2(T182C) (C177A)) | Rate enhancement, Cdk2 F80C (Cdk2(C177A, F80C)) | Rate constant with Cdk2 F80C (Cdk2(C177A, F80C)) | Rate enhancement, Cdk2 S276C (Cdk2(S276C) (C177A)) | Rate constant with Cdk2 S276C (Cdk2(S276C) (C177A)) | Rate constant with Cdk2[C177A, F80C, K278C] (k(Cdk2_mut)) (Cdk2[C177A, F80C, K278C]) | Rate enhancement, Cdk2 R122C (Cdk2(R122C) (C177A)) | Rate constant with Cdk2 R122C (Cdk2(R122C) (C177A)) | Rate enhancement, Cdk2 S181C (Cdk2(S181C) (C177A)) | Structure (SMILES) | Rate constant with glutathione (k(GSH)) [2] | Rate constant with Glutathione [2] | other results
1.456 | 0.02811 | 0.6381 | 0.02811 | 1.586 | 0.6384 | 0.7126 | 0.03139 | 4.62 | 0.2035 | 0.3805 | 0.01676 | 1.852 | 0.08156 | 0.01772 | 0.4465 | 0.01967 | 0.2036 | C=CC(=O)N1CCn2cccc2C1c1ccccc1 (stereo not shown) [CA-187] | 0.04403 | 0.04405 | Rate constant with Cdk2 H71C (Cdk2(H71C) (C177A)): 0.06414; Rate constant with Cdk2 S181C (Cdk2(S181C) (C177A)): 0.00897
1.537 | 0.55 | 2.768 | 0.55 | 0.4737 | 2.89 | 0.3173 | 0.06304 | 1.883 | 0.3741 | 2.57 | 0.5106 | 0.03818 | 0.007587 | 1.161 | 0.08933 | 0.01775 | 0.2482 | C=CC(=O)N1CC2(CCC2)c2c(F)cccc21 [CA-188] | 0.1903 | 0.1987 | Rate constant with Cdk2 H71C (Cdk2(H71C) (C177A)): 0.3055; Rate constant with Cdk2 S181C (Cdk2(S181C) (C177A)): 0.04931
0 | 0.00347 | 0.248 | 0.003469 | 1.136 | 0.2735 | 0.2334 | 0.003265 | 0.8134 | 0.01138 | 0.3783 | 0.005293 | 0.3527 | 0.004934 | 0.00305 | 0.501 | 0.007009 | 0.2548 | C=CC(=O)N1CC2CCN(Cc3ccccc3)C2C1 (stereo not shown) [CA-190] | 0.01268 | 0.01399 | Rate constant with Cdk2 S181C (Cdk2(S181C) (C177A)): 0.003565
0.218 | 0.00341 | 0.4352 | 0.00584 | 0.7625 | 0.5048 | 0.3716 | 0.004987 | 0.4571 | 0.006134 | 0.1157 | 0.001553 | 0.08092 | 0.001086 | 0.00447 | 0.136 | 0.001825 | 0.1475 | C=CC(=O)N(CCCN1CCOCC1)Cc1ccncc1 [CA-192] | 0.00676 | 0.01342 | Rate constant with Cdk2 H71C (Cdk2(H71C) (C177A)): 0.002926; Rate constant with Cdk2 S181C (Cdk2(S181C) (C177A)): 0.00198
1.842 | 0.02444 | 0.8776 | 0.02444 | 2.308 | 1.028 | 0.8528 | 0.02375 | 3.878 | 0.108 | 1.419 | 0.03952 | 1.379 | 0.03841 | 0.01059 | 0.6093 | 0.01697 | 0.4083 | C=CC(=O)N1CCOC2(CCCCC2)C1 [CA-193] | 0.02378 | 0.02785 | Rate constant with Cdk2 H71C (Cdk2(H71C) (C177A)): 0.05131; Rate constant with Cdk2 S181C (Cdk2(S181C) (C177A)): 0.01137
0 | 0.00505 | 1.123 | 0.005049 | 0.3625 | 1.651 | 0.2125 | 0.0009551 | 10.72 | 0.04819 | 0.9911 | 0.004454 | 0.7641 | 0.003434 | 0.01393 | 0.7287 | 0.003275 | 0.6985 | C=CC(=O)Nc1ccc(C23CC4CC(CC(O)(C4)C2)C3)cc1 [CA-194] | 0.00306 | 0.004494 | Rate constant with Cdk2 S181C (Cdk2(S181C) (C177A)): 0.003139
0 | 0.00543 | 1.211 | 0.009448 | 4.114 | 1.074 | 0.6405 | 0.004999 | 2.301 | 0.01796 | 0.2601 | 0.00203 | 0.3503 | 0.002734 | 0.00132 | 0.2272 | 0.001773 | 1.095 | C=CC(=O)NC1CC(NC(=O)C2CCC2)C1 (stereo not shown) [CA-202] | 0.00506 | 0.007805 | Rate constant with Cdk2 S181C (Cdk2(S181C) (C177A)): 0.008545
